Laboratory results taken from US6638955B2, “Antibiotic oxazolidinone derivatives” (priority 1996, dated 2003).
In brackets after ≈: the same amount, converted by molar mass.

How the values were obtained:
Assay in all cases: MIC, agar-dilution, standard in-vitro test
Format in all cases: cell-based
[1] = tested on: Coagulase Negative Staphylococcus MR (methicillin resistant); conditions: 10^4 CFU/spot, 37° C., 24 hours
Experimental: (§1) The following results were obtained on a standard in-vitro test system. The activity is described in terms of the minimum inhibitory concentration (MIC) determined by the agar-dilution technique with an inoculum size of 10^4 CFU/spot.
(§2) Staphylococci were tested on agar, using an inoculum of 10^4 CFU/spot and an incubation temperature of 37° C. for 24 hours—standard test conditions for the expression of methicillin resistance.

[2] = tested on: Coagulase Negative Staphylococcus MS (methicillin sensitive); conditions: 10^4 CFU/spot, 37° C., 24 hours
Experimental: as §1, §2

[3] = tested on: Staphylococcus aureus MRQR (methicillin resistant quinolone resistant); conditions: 10^4 CFU/spot, 37° C., 24 hours
Experimental: as §1, §2

[4] = tested on: Staphylococcus aureus MRQS (methicillin resistant quinolone sensitive); conditions: 10^4 CFU/spot, 37° C., 24 hours
Experimental: as §1, §2

[5] = tested on: Staphylococcus aureus Novb. Res (Novobiocin resistant); conditions: 10^4 CFU/spot, 37° C., 24 hours
Experimental: as §1, §2

[6] = tested on: Staphylococcus aureus Oxford; conditions: 10^4 CFU/spot, 37° C., 24 hours
Experimental: as §1, §2

Enterococcus faecalis = conditions: agar with 5% defibrinated horse blood, 10^4 CFU/spot, 37° C., 5% carbon dioxide, 48 hours
Experimental: as §1
(§3) Streptococci and enterococci were tested on agar supplemented with 5% defibrinated horse blood, an inoculum of 10^4 CFU/spot and an incubation temperature of 37° C. in an atmosphere of 5% carbon dioxide for 48 hours—blood is required for the growth of some of the test organisms.

[7] = tested on: Streptococcus pyogenes C203; conditions: agar with 5% defibrinated horse blood, 10^4 CFU/spot, 37° C., 5% carbon dioxide, 48 hours
Experimental: as §1, §3

Bacillus subtilis = conditions: 10^4 CFU/spot
Excerpt: as §1

Compound `CC(=O)NC[C@H]1CN(c2ccc(C3=CCN(C(=O)OC(C)(C)C)CC3)cc2)C(=O)O1` [Example 1, N-((5S)-3-(4-(1-tert-butoxycarbonyl-1,2,5,6-tetrahydropyrid-4-yl)phenyl)-2-oxoxazolidin-5yl-methyl)acetamide] has an MIC [1] of 1.0 µg/mL (≈ 2.41 µM), an MIC [2] of 0.25 µg/mL (≈ 0.602 µM) and an MIC [3] of 0.5 µg/mL (≈ 1.2 µM). It also gave an MIC [4] of 0.5 µg/mL (≈ 1.2 µM), an MIC [5] of 0.5 µg/mL (≈ 1.2 µM) and an MIC [6] of 1.0 µg/mL (≈ 2.41 µM). The MIC (Enterococcus faecalis) was 1.0 µg/mL (≈ 2.41 µM), the MIC [7] was 1.0 µg/mL (≈ 2.41 µM) and the MIC (Bacillus subtilis) was 0.25 µg/mL (≈ 0.602 µM).
